In patent publication US11844801B2, “Oral compositions of MK2 pathway inhibitor for treatment of immune conditions” (priority 2020, dated 2023):

How the values were obtained:
TNF-α = experiment: Ex vivo LPS-stimulated TNF-α in blood of dosed healthy subjects, PK/PD inhibitory Emax model; parameters: species or system human
Procedure: (§1) Blood samples of 10 mL were collected for PD analysis. For the SAD cohorts, blood was collected before dosing and 1, 12, and 24 hours after dosing. For the MAD cohorts, on day 1 blood was collected before the morning dose and 4 and 12 hours after the morning dose (prior to the evening dose); on day 7, blood was collected before the morning dose and 4 and 12 hours after the morning dose.
(§2) Additional details of the assays for analyzing p-HSP27 and cytokines are included in the Supplementary Information.
(§3) Pharmacodynamics. PD data analysis was conducted using Microsoft Excel 2010 (Microsoft, Redmond, WA), Meso Scale Discovery Workbench® analysis software (Rockville, MD), and Phoenix WinNonlin, version 8.2.
(§4) Sample Preparation for Cytokine Analysis. For each sample, 180 μL aliquots were transferred into 7 wells of a round bottom 96 well tissue culture polystyrene low evaporation plate. […] No outer wells on the plates were used and all wells surrounding the samples contained 200 μL of phosphate buffered saline.
(§5) DMSO was added to all wells in groups ‘A’ and ‘C’ to a final concentration of 0.1% ([…] of a 2% DMSO solution in DMEM containing 10% FBS and 1% penicillin/streptomycin/glutamine). […] Samples were mixed gently for 30 seconds on a plate shaker using pin tools, then placed in an incubator at 37° C./5% CO2 for 1 hour.
(§6) Samples in groups ‘A’ and ‘B’ were stimulated with lipopolysaccharide at a final concentration of 100 ng/mL. A stock solution of lipopolysaccharide at 1 mg/mL in DMEM containing 10% FBS and 1% penicillin/streptomycin was diluted to […] in DMEM containing 10% FBS and 1% penicillin/streptomycin, and […] of this working solution was added per well of blood for all samples in groups ‘A’ and ‘B’. […] of DMEM containing 10% FBS only was added per well of blood for all samples in group ‘C’ (unstimulated samples). Samples were mixed gently for 30 seconds on a plate shaker using pin tools, then placed in an incubator at 37° C./5% CO2 for 5 hours.
(§7) Following the incubation, the plates were removed from the incubator and sealed with adhesive clear plate seals. The plates were then centrifuged for 10 minutes at 1800×g at room temperature. […] of plasma was removed from each well and transferred to a 96-well polypropylene round bottom master plate, which was then sealed and frozen at −80° C. until all samples from the respective cohort were generated. Once all samples from a given cohort were generated, the samples were analyzed for cytokine (TNF-α, IL-1b, IL-6, and IL-8) production using Meso Scale Discovery Technology.
(§8) Analysis of Cytokine Levels Using Meso Scale Discovery Technology. All lipopolysaccharide plasma samples were analyzed for cytokine production with a V-Plex Human Proinflammatory Panel II (4-Plex) Kit from Meso Scale Discovery (Rockville, MD). The master plates containing the plasma samples were thawed on ice, and a daughter plate consisting of a 25-fold dilution of each plasma sample (3 μL of plasma plus 72 μL of Meso Scale Discovery Diluent 2) was generated for each master plate. The diluted plasma samples from the daughter plates were used in the cytokine analysis. The Meso Scale Discovery 4-plex plates were washed 3 times with 150 μL/well of wash buffer (1×KPL phosphate buffered saline with Tween 20 from SeraCare [Milford, MA]). Prepared calibrators and the samples from the daughter plates were added to the washed Meso Scale Discovery 4-plex plates at 50 μL/well. The 4-plex plates were sealed and shaken overnight at 4° C.
(§9) After the overnight incubation, the samples were removed by decanting. The 4-plex plates were then washed 3 times with 150 μL/well of wash buffer. […]

IL-6 = experiment: Ex vivo LPS-stimulated IL-6 in blood of dosed healthy subjects, PK/PD inhibitory Emax model; parameters: species or system human
Procedure: as §1, §2, §3, §4, §5, §6, §7, §8, §9

IL-10 = experiment: Ex vivo stimulated IL-10 in blood of subjects dosed 80 mg or 120 mg; parameters: species or system human; details: 80 mg or 120 mg BID
Procedure: (§10) Methods: Safety, pharmacokinetics (PK) and pharmacodynamics (PD) were assessed in two cohorts of subjects in a randomized, observer-blind, placebo-controlled study in male and female healthy subjects aged 18-55 (n=77). The study consisted of twenty (20) subjects enrolled into 2 cohorts. […] The final dose was administered in the morning on Day 7. Blood samples were obtained Day 1—before dosing, Day 1—4 hours after dosing and Day 1—12 hours after dosing and Day 7—before dosing, Day 7—4 hours after dosing, day 7—12 hour after dosing and Day 7—24 hours after dosing for each subject.

[1] = Phase 2a ATI-450 plus MTX in moderate to severe rheumatoid arthritis: clinical activity (DAS28-CRP, ACR20/50/70, joint counts, hsCRP); format: in vivo, human; details: 50 mg BID plus MTX
IL-1β = experiment: R848 stimulated IL-1β production in human whole blood; format: cell-based; details: R848, 0.5 ug/mL, 5 hr
Procedure: Human whole blood assays were performed as described above with the exceptions listed below. […] Compounds were serially diluted in 100% DMSO (Sigma-Aldrich, D2650) followed by a 10× dilution into RPMI (Gibco, 11875). After the one-hour incubation with the compounds or vehicle, 2 μL of R848 (InvivoGen, tlrl-r848) in RPMI (Gibco, 11875) was added for a final concentration of 0.5 μg/mL to each well except for the no stimulus wells. After five hours of incubation with R848, plasma was harvested and assayed for TNF-α, IL-1β, IL-6 and IL-8 using Meso Scale Discovery Technology V-plex human cytokine kits according to the kit protocol.

TNF-α, IL-6, and IL-8 = experiment: Ex vivo IL-1β-induced TNF-α, IL-6 and IL-8 in blood of dosed healthy subjects; details: human
Procedure: as §10

[2] = in vivo; cited from earlier work
[3] = Homo sapiens, calculated from IC50, combined SAD and MAD data, read-out: IC80, plasma concentration at 80% of maximal inhibition
[4] = Homo sapiens, inhibitory Emax model, combined SAD and MAD data, read-out: IC50, plasma concentration at half maximal inhibition
[5] = calculated from IC50, combined SAD and MAD data

SMILES: Cc1cnc(-c2ccnc(C(C)(C)O)n2)cc1-n1c(C)cc(OCc2ncc(F)cc2F)c(Cl)c1=O (single isomer, unassigned) [ATI-450, 3-chloro-4-((3,5-difluoropyridin-2-yl)methoxy)-2′-(2-(2-hydroxypropan-2-yl)pyrimidin-4-yl)-5′,6-dimethyl-2H-[1,4′-bipyridin]-2-one]
- TNF-α inhibition versus baseline (TNF-α; 50 mg BID MAD cohort): up to 92.7%
- Cmax (Multiple of IC80) (TNF-α; 50 mg BID, day 7): 3.5x
- Ctrough (Multiple of IC80) (TNF-α; 50 mg BID, day 7): 1.4x
- IC80 (TNF-α; [3]): 0.0626 µg/mL
- IC50 (TNF-α; [4]): 0.0156 µg/mL
- IC80, plasma concentration at 80% of maximal inhibition (TNF-α; [5]): 0.0626 µg/mL
- Cmax (Multiple of IC80) (IL-6; 50 mg BID, day 7): 0.3x
- Ctrough (Multiple of IC80) (IL-6; 50 mg BID, day 7): 0.1x
- inhibition at 50 mg (IL-6; Homo sapiens, 50 mg BID, part of the dosing interval): > 50%
- IC80 (IL-6; [3]): 0.748 µg/mL
- IC50 (IL-6; [4]): 0.187 µg/mL
- IC80, plasma concentration at 80% of maximal inhibition (IL-6; [5]): 0.7478 µg/mL
- IL-10 modulation (IL-10): 25-30%
- swollen and tender joint count over time ([1]; 84 days): sustained decrease in swollen joint count and tender joint count
- DAS28-CRP change from baseline over time ([1]; through day 84): rapid and sustained onset of efficacy
- hsCRP change from baseline over time ([1]; through day 84): rapid and sustained reduction in hsCRP
- median reduction from baseline in hsCRP ([1]; throughout the 12 weeks): > 40%
- mean change from baseline in DAS28-CRP (reduction) ([1]; week 12): 2.0
- ACR20 response ([1]; week 12, 15 subjects): 60%
- ACR50 response ([1]; week 12, 15 subjects): 33%
- ACR70 response ([1]; week 12, 15 subjects): 20%
- proportion of subjects with DAS28-CRP <2.6 (remission) ([1]; week 12, 15 subjects): 20%
- proportion of subjects with DAS28-CRP ≤ 3.2 (low disease activity or remission) ([1]; week 12, 15 subjects): 40%
- IC50 (IL-1β): 95.6 ± 34.8 nM
- ex vivo IL-1β-induced TNF-α, IL-6, and IL-8 (TNF-α, IL-6, and IL-8): potently inhibits
- effect in rat streptococcal cell wall arthritis model [2]: joint protective effects and preserved bone mineral density
